tested on: Mast cell; test: Inhibition of compound 48/80-induced histamine release in Wistar rat peritoneal mast cells; assay type: functional, cell-based; call rule not given here

SMILES | IC50
C/C(=C\CC[C@]1(C)C=Cc2c(O)cc(C)cc2O1)C/C=C\C(C)(C)O [DAURICHROMENE C] | 87.4 µM
C=C(CCC=C(C)C)C(O)CC[C@]1(C)C=Cc2c(O)cc(C)cc2O1 (stereo partly drawn) [DAURICHROMENE B] | 4.4 µM
C/C(=C\CC/C(C)=C/CC[C@]1(C)C=Cc2c(O)cc(C)cc2O1)CO [DAURICHROMENE D] | 1.3 µM
COc1ccc2c(c1)c(CC(=O)O)c(C)n2C(=O)c1ccc(Cl)cc1 [INDOMETHACIN] | 250 µM
CC(C)=CCC/C(C)=C/CC[C@]1(C)C=Cc2c(O)cc(C)cc2O1 [CONFLUENTIN] | 205 µM

Next, values leading:

IC50 | SMILES
81.6 µM | CC(C)=CCC/C(C)=C/CC/C(C)=C/Cc1c(O)cc(C)cc1O [GRIFOLIN]
1.6 µM | C=C(C)C(O)CC/C(C)=C/CC[C@]1(C)C=Cc2c(O)cc(C)cc2O1 (stereo partly drawn) [DAURICHROMENE A]
Not Active | Cc1cc(O)cc(O)c1 [ORCINOL]
